Assay results as given in patent US10406120B2, “Methods and compositions for treating kidney disorders” (Golden Biotechnology Corporation, priority 2013, dated 2019).

How the values were obtained:
[1] = test system: IL-1β; assay: AcP-IgAN model: serum IL-1β ELISA; type: in vivo, B cell-deficient mice; conditions: AcP-IgAN mice, day 28, vs control AcP-IgAN mice (FIG. 15C)
Description: (§1) B cell-deficient mice (B6.129S2-Igh-6tm1Cgn/J) were obtained from the Academia Sinica (Professor John T. Kung, Institute of Molecular Biology), and maintained at the animal center of the National Defense Medical Center, Taipei, Taiwan. AcP-IgAN was induced in the mice by daily injection of purified IgA anti-phosphorylcholine antibodies and pneumococcal C-polysaccharide (PnC) as described previously (Chao, et al., Kidney Int. 70:283-297; 2006). All animal experiments were performed with the approval of the Institutional Animal Care and Use Committee of The National Defense Medical Center, Taiwan, and were consistent with the NIH Guide for the Care and Use of Laboratory Animals.
(§2) Serum levels of IL-1β (eBiosceience, CA), IL-6 (eBiosceience), IL-18 (MBL, Japan), and MCP-1 (eBiosceience) were measured using commercial ELISA kits according to the manufacturer's instructions.

[2] = test system: IL-6; assay: AcP-IgAN model: serum IL-6 ELISA; type: in vivo, B cell-deficient mice; conditions: AcP-IgAN mice
Description: as §1, §2

[3] = test system: collagen I, III, and IV; assay: FSGS model: renal collagen accumulation (IHC); type: in vivo, BALB/c mice; conditions: FSGS mice
Description: (§3) Experiments described herein were performed on 8-week-old female BALB/c mice. The FSGS mice were injected intravenously with a single dose of adriamycin (0.1 mg/10 g body weight). The mice were given Compound 1 six hours before adriamycin injection by gavage daily till sacrifice. BALB/c mice intraperitoneal injected with normal saline were used as normal controls, while ASLN mice given vehicle (corn oil) by gavage were used as disease controls. Mice were killed at day 7, 14, or 21 after disease induction, and spleen, renal cortical tissue, and blood samples collected and stored appropriately until analysis. All animal experiments were performed with the ethical approval of the Institutional Animal Care and Use Committee of The National Defense Medical Center, Taiwan and performed according to the ethical rules in the NIH Guide for the Care and Use of Laboratory Animals.
(§4) For IHC, formalin-fixed and paraffin-embedded renal sections were prepared and incubated with primary antibodies against mouse Desmin (Lab Vision, CA, USA), CD3 (pan-T cell; Serotec, N.C., USA), F4/80 (monocytes/macrophages; Serotec), IL-6 (R&D Systems, MN, USA), NF-κB p65 (Cell Signaling Technology, MA, USA), collagen I, III, and IV (Southern Biotech, AL, USA), or TGF-β1 (Santa Cruz Biotechnology, CA, USA), biotinylated second antibodies (Dako, Glostrup, Denmark), and avidin-biotin-peroxidase complex (Dako). Semi-quantitative evaluation of staining was performed.

[4] = test system: TGF-β1; assay: FSGS model: TGF-β1 in serum and kidney (ELISA, IHC); type: in vivo, BALB/c mice; conditions: FSGS mice
Description: as §3, §4
The TGF-β1 protein levels in serum and renal tissue were measured using the commercial ELISA kits (R&D Systems), according to the manufacturer's instructions. Samples were acidified with 1 N HCl and neutralized with 1.2 N NaOH/0.5 M HEPES to assay for the amount of TGF-β1.

[5] = test system: Nrf2; assay: AcP-IgAN model: renal Nrf2 mRNA and protein; type: in vivo, B cell-deficient mice; conditions: AcP-IgAN mice, day 3 until day 28, vs control AcP-IgAN mice
Description: as §1
Nuclear proteins were extracted using a nuclear extract kit (Active Motif, Japan). Phospho-NF-κB p65 and nuclear factor-erythroid-2-related factor 2 (NrF2) were measured in renal tissue nuclear protein extracts using Trans-AM ELISA assay kits (Active Motif), according to the manufacturer's instructions. Renal cytosolic protein extracts using RIPA buffer (Cell signaling). Cytosolic glutathione peroxidase (GPx) (Cayman, Mich.) and cytosolic heme oxygenase-1 (HO-1) (Enzo Life Sciences, NY) were measured using commercial ELISA kits according to the manufacturer's instructions. Both were expressed relative to the protein concentration in the lysate. […]

[6] = based on a previous study and empirical use (Chang et al. 2008); cited from earlier work
[7] = test system: desmin; assay: FSGS model: podocyte injury, desmin IHC; type: in vivo, BALB/c mice; conditions: FSGS mice
Description: as §3, with “All animal experiments were performed with the ethical approval of the Institutional Animal Care and Use Committee of The National Defense Medical Center, Taiwan and performed according to the ethical rules in the NIH Guide for the Care and Use of Laboratory Animals.” left out
as §4

[8] = test system: caspase-1; assay: AcP-IgAN model: renal caspase-1 mRNA and protein; type: in vivo, B cell-deficient mice; conditions: AcP-IgAN mice
Description: as §1
Total cortical kidney RNA was extracted with TriZOL reagents (Invitrogen) from cortical tissue of the kidney. For first-strand cDNA synthesis, 1.5 μg of total RNA was used in a single-round reverse transcriptase reaction. The reaction mixture consisted of 0.9 μl of Oligo (dT) 12 to 18 primer, 1.0 mM deoxyribonucleotide triphosphate (dNTP), 1 μl first strand buffer, 0.4 mM dithiothreitol, 80 U of RNaseout recombinant ribonuclease inhibitor, and 300 U of superscript II RNase H (Invitrogen). […]
(§5) Each protein sample was run on a 10% SDS-PAGE gel. […] The membrane-bound antibody detected was incubated with chemiluminescent reagent plus (PerkinElmer Life Sciences, MA) and captured on x-ray film.

[9] = test system: NLRP3; assay: AcP-IgAN model: renal NLRP3 mRNA and protein; type: in vivo, B cell-deficient mice; conditions: AcP-IgAN mice
Description: as §1
Total cortical kidney RNA was extracted with TriZOL reagents (Invitrogen) from cortical tissue of the kidney. For first-strand cDNA synthesis, 1.5 μg of total RNA was used in a single-round reverse transcriptase reaction. The reaction mixture consisted of 0.9 μl of Oligo (dT) 12 to 18 primer, 1.0 mM deoxyribonucleotide triphosphate (dNTP), 1 μl first strand buffer, 0.4 mM dithiothreitol, 80 U of RNaseout recombinant ribonuclease inhibitor, and 300 U of superscript II RNase H (Invitrogen). Real-time PCR was performed on an ABI Prism 7700 Sequence Detection System (Applied Biosystems, CA). All of the probes and primers were Assays-on-Demand Gene expression products (Applied Biosystems). Real-time PCR reactions were using 10 μl of cDNA, 12.5 μl of TaqMan Universal PCR Master Mix (Applied Biosystems), and 1.25 μl of the specific probe/primer mixed in a total volume of 25 μl. The thermal cycler conditions were as follows: 2 min at 50° C., 10 min at 95° C., 40 cycles of denaturation (15 s at 95° C.), and combined annealing/extension (1 min at 60° C.).
as §5

[10] = day 28, vs control AcP-IgAN mice
[11] = day 14 to day 21, vs control FSGS mice
[12] = day 14 and day 21, vs control FSGS mice

COC1=C(OC)[C@H](O)[C@H](C/C=C(\C)CC/C=C(\C)CCC=C(C)C)[C@@H](C)C1=O [Compound 1, Antroquinonol]
serum levels of IL-1β (increase) [1]: greatly inhibited
serum IL-6 levels ([2]; day 3, between control AcP-IgAN, AcP-IgAN+Antroq and normal control mice): no difference
serum levels of IL-6 [2, 10]: substantially decreased
renal expression of collagen I (IHC) [3, 11]: significant suppression
renal expression of collagen IV (IHC) [3, 11]: significant suppression
renal expression of collagen III (IHC) ([3]; day 21, vs control FSGS mice): significant suppression
TGF-β1 protein levels in kidney (ELISA) [4, 12]: greatly abrogated
TGF-β1 protein levels in serum (ELISA) [4, 12]: greatly abrogated
TGF-β1 protein expression in the kidney (IHC) ([4]; vs control FSGS mice): significantly lower
renal expression levels of mRNA of Nrf2 [5]: greatly increased
renal expression levels of protein of Nrf2 [5]: greatly increased
effective range [6]: 10-50 mg/kg body weight
expression of desmin (IHC) ([7]; day 21, compared to normal control mice): mild desmin expression levels
expression of desmin (IHC) ([7]; days 14 and 21, vs control FSGS mice): significantly reduced
renal increase in caspase-1 protein levels ([8]; both day 3 and day 28, vs control AcP-IgAN mice): greatly inhibited
renal mRNA expression levels of caspase-1 (elevation) ([8]; day 3 until day 28, real-time PCR): greatly inhibited
protein levels of NLRP3 in the kidney (increase) ([9]; both day 3 and day 28, vs AcP-IgAN mice): significantly inhibited
renal NLRP3 mRNA expression levels ([9]; day 3): no effects
renal mRNA levels of NLRP3 [9, 10]: substantially reduced
